This note sets out measurements from patent US9730914B2, “3,5-diaminopyrazole kinase inhibitors” (Axikin Pharmaceuticals, Inc., priority 2014, dated 2017).

Assay [1] addresses T1, kinase domain protein of RC kinase (RCK) (Homo sapiens, UniProt Q56UN5).
T1 construct: made in house; host or cells: E. coli BL21-derived host (T7 phage) or HEK-293
T1 sequence (Q56UN5 1061-1324 limits assumed): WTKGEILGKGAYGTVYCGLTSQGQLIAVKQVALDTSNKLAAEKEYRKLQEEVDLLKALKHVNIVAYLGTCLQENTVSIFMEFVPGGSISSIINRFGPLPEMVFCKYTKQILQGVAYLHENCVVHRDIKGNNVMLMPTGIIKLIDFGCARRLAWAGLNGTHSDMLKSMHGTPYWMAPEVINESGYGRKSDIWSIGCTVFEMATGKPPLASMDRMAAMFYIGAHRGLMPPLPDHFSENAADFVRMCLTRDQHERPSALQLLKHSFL
Description: Kinase competition binding assay (Kd, qPCR readout), RC kinase. The conditions noted are these: Kd class, read-out: RCK Activity Level. The essentials:
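Competition binding: DNA-tagged kinase (T7 phage or HEK-293-expressed) plus immobilized biotinylated ligand beads and compound, 1 h at room temperature, 1% DMSO. Bead-bound kinase eluted and quantified by qPCR. Kd from 11-point 3-fold dilution, top 30,000 nM, retested lower if below 0.5 nM.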

In assay [2] the target is T2, JAK2 (Homo sapiens, UniProt O60674).
T2 construct: made in house; host or cells: E. coli BL21-derived host (T7 phage) or HEK-293
Description: Kinase competition binding assay (Kd, qPCR readout), JAK2. To be noted: for Kd: Kd class, JAK2, read-out: JAK2 Activity Level; for RCK:JAK2 selectivity ratio: ratio Kd (JAK2): Kd(RCK). The essentials: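 Competition binding: DNA-tagged kinase (T7 phage or HEK-293-expressed), immobilized biotinylated ligand beads and compound in SeaBlock/PBS/Tween/DTT buffer, 1 hour at room temperature; bound kinase eluted and quantified by qPCR. Kd from 11-point 3-fold dilution, top 30,000 nM typically, final DMSO 1%.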

Assay [3] addresses T3, JAK3 (Homo sapiens, UniProt P52333).
T3 construct: made in house; host or cells: E. coli BL21-derived host (T7 phage) or HEK-293
Kind of assay: Kinase competition binding assay (Kd, qPCR readout), JAK3. To be noted: for Kd: Kd class, JAK3, read-out: JAK3 Activity Level; for RCK:JAK3 selectivity ratio: ratio Kd (JAK3): Kd (RCK). The essentials:
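Competition binding in which kinase, either T7 phage-tagged or HEK-293-expressed and DNA-tagged, was exposed to immobilized biotinylated ligand and test compound for 1 h at room temperature. Bead-bound kinase was eluted and quantified by qPCR. Kd came from 11-point 3-fold dilutions, top concentration 30,000 nM and 1% DMSO, repeated lower if below 0.5 nM.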

T3 sequence (P52333 811-1124 limits assumed): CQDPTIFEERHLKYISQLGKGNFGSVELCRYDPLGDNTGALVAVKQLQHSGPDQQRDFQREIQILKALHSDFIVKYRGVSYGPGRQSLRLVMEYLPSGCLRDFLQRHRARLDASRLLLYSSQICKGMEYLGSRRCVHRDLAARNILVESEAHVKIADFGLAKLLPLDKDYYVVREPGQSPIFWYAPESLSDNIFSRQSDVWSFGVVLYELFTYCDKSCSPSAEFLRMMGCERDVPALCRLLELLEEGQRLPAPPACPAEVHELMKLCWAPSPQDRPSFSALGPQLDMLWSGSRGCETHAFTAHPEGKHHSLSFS
T2 sequence (O60674 840-1132 limits assumed): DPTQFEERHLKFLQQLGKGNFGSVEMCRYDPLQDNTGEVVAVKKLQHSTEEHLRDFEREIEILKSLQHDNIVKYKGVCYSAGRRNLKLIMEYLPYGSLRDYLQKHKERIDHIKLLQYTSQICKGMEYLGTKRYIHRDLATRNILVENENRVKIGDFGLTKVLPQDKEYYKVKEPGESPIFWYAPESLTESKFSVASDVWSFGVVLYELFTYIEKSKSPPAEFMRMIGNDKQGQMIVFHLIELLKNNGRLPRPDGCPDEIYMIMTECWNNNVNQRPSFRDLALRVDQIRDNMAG

Consider `C[C@@H]1CC(c2ccc(Nc3n[nH]c(NCc4ccc(O)cc4)c3C(N)=O)cn2)C[C@H](C)O1` (some centres unmarked) [reference compound], for which the Kd in assay [1] was under 50 nM. In assay [2], the Kd is under 50 nM and the “RCK:JAK2 selectivity ratio” value is reported as “C (C represents 1<Kd (JAK2): Kd (RCK)<10)”. Moreover, in assay [3], the Kd was under 50 nM and the “RCK:JAK3 selectivity ratio” value was “C (C represents 1<Kd (JAK3): Kd (RCK)<10)”.
As to `NC(=O)c1c(Nc2ccc(N3CCCCC3)cc2)n[nH]c1NCc1ccc(O)cc1` [reference compound], the Kd in assay [1], in assay [2] and in assay [3] was under 50 nM in each case. In assay [2], the “RCK:JAK2 selectivity ratio” value is recorded as “C (C represents 1<Kd (JAK2): Kd (RCK)<10)”. Also, the “RCK:JAK3 selectivity ratio” value in assay [3] is on record as “C (C represents 1<Kd (JAK3): Kd (RCK)<10)”.
For the molecule `Cc1cc(Nc2n[nH]c(NCc3ccc(O)cc3)c2C(N)=O)ccc1N1CCN(C)CC1` [reference compound], the Kd in assay [1] was under 50 nM. In addition, in assay [2], the Kd is under 50 nM and the “RCK:JAK2 selectivity ratio” value is “C (C represents 1<Kd (JAK2): Kd (RCK)<10)”. For the same molecule, in assay [3], the Kd was under 50 nM and the “RCK:JAK3 selectivity ratio” value was “C (C represents 1<Kd (JAK3): Kd (RCK)<10)”.
For `Cc1cc(Nc2n[nH]c(NCc3ccc(O)cc3)c2C(N)=O)ccc1N1CCCCC1` [reference compound], the Kd in assay [1] was under 50 nM. In addition, in assay [2], the Kd was under 50 nM and the “RCK:JAK2 selectivity ratio” value is “C (C represents 1<Kd (JAK2): Kd (RCK)<10)”. For the same molecule, in assay [3], the Kd lay within 50 to 100 nM and the “RCK:JAK3 selectivity ratio” value is reported as “C (C represents 1<Kd (JAK3): Kd (RCK)<10)”.
As to `NC(=O)c1c(Nc2ccc(N3CCN(Cc4ccccc4)CC3)cc2)n[nH]c1NCc1ccc(O)cc1` [reference compound], in assay [1], the Kd is under 50 nM. In assay [2], the Kd is under 50 nM and the “RCK:JAK2 selectivity ratio” value is on record as “D (D represents Kd(JAK2): Kd (RCK)<1)”. In assay [3], the Kd was under 50 nM and the “RCK:JAK3 selectivity ratio” value was “C (C represents 1<Kd (JAK3): Kd (RCK)<10)”.
On to `NC(=O)c1c(Nc2ccc(N3CCS(=O)(=O)CC3)cc2)n[nH]c1NCc1ccc(O)cc1` [reference compound], for which the Kd in assay [1], in assay [2] and in assay [3] was under 50 nM in each case. Further, the “RCK:JAK2 selectivity ratio” value in assay [2] is recorded as “D (D represents Kd(JAK2): Kd (RCK)<1)”. Moreover, the “RCK:JAK3 selectivity ratio” value in assay [3] was “D (D represents Kd (JAK3): Kd(RCK)<1)”.
With `NC(=O)c1c(Nc2ccc(N3CCCCC3)cn2)n[nH]c1NCc1ccc(O)cc1` [reference compound], the Kd in assay [1] was under 50 nM. Besides, in assay [2], the Kd was under 50 nM and the “RCK:JAK2 selectivity ratio” value is reported as “D (D represents Kd(JAK2): Kd (RCK)<1)”. For the same molecule, in assay [3], the Kd was under 50 nM and the “RCK:JAK3 selectivity ratio” value is given as “D (D represents Kd (JAK3): Kd(RCK)<1)”.
With `NC(=O)c1c(Nc2ccc(N3CCC(Cl)CC3)cc2)n[nH]c1NCc1ccc(O)cc1` [reference compound], the Kd in assay [1], in assay [2] and in assay [3] was under 50 nM each time. Moreover, in assay [2], the “RCK:JAK2 selectivity ratio” value was “D (D represents Kd(JAK2): Kd (RCK)<1)”. Besides, the “RCK:JAK3 selectivity ratio” value in assay [3] is on record as “C (C represents 1<Kd (JAK3): Kd (RCK)<10)”.
As to `NC(=O)c1c(Nc2ccc(CN3CCCC3)cc2)n[nH]c1NCc1ccc(O)cc1` [reference compound], the Kd in assay [1] was under 50 nM. In assay [2], the Kd was under 50 nM and the “RCK:JAK2 selectivity ratio” value is given as “D (D represents Kd(JAK2): Kd (RCK)<1)”. Also, in assay [3], the Kd was under 50 nM and the “RCK:JAK3 selectivity ratio” value is on record as “D (D represents Kd (JAK3): Kd(RCK)<1)”.
Turning to `CN(C)C1CCN(c2ccc(Nc3n[nH]c(NCc4ccc(O)cc4)c3C(N)=O)cc2)CC1` [reference compound], the Kd in assay [1] was under 50 nM. Also, in assay [2], the Kd is under 50 nM and the “RCK:JAK2 selectivity ratio” value is reported as “D (D represents Kd(JAK2): Kd (RCK)<1)”. Besides, in assay [3], the Kd was under 50 nM and the “RCK:JAK3 selectivity ratio” value is reported as “D (D represents Kd (JAK3): Kd(RCK)<1)”.
`NC(=O)c1c(Nc2ccc(N3CCOCC3)c(F)c2)n[nH]c1NCc1ccc(O)cc1` [reference compound]: the Kd in assay [1], in assay [2] and in assay [3] was under 50 nM each time.
